Results: ChEMBL document CHEMBL4825691, “Antimicrobial, modulatory, and antibiofilm activity of tt-farnesol on bacterial and fungal strains of importance to human health” (2021)
≈ marks a conversion by molar mass, not a printed value.

What was measured:
Type in all cases: functional
Enterococcus durans [1] = assay: Ratio of MBC to MIC against Enterococcus durans BIO 0114
Klebsiella pneumoniae [2] = assay: Antibacterial activity against Klebsiella pneumoniae ATCC 700603 assessed as inhibition of bacterial growth incubated for 24 hrs by microdilution assay
Enterococcus faecalis [3] = assay: Antibacterial activity against Enterococcus faecalis ATCC 29212 assessed as inhibition of bacterial growth incubated for 24 hrs by microdilution assay
Staphylococcus aureus [4] = assay: Antibiofilm activity against drug-resistant Staphylococcus aureus MED 55 assessed as inhibition of biofilm formation incubated for 24 hrs by crystal violet staining based microtiter plate method
[5] = system: Staphylococcus epidermidis; assay: Antimicrobial activity against Staphylococcus epidermidis ATCC 12228 assessed assessed as reduction in bacterial growth at 1/8 times of drug MIC in the presence of Oxacillin by microdilution method
Streptococcus agalactiae [6] = assay: Bactericidal activity against Streptococcus agalactiae ATCC 13813 assessed as bacterial killing incubated for 24 hrs by microdilution assay
Klebsiella pneumoniae [7] = assay: Antibacterial activity against Klebsiella pneumoniae ATCC 1705 assessed as inhibition of bacterial growth incubated for 24 hrs by microdilution assay
Streptococcus sobrinus [8] = assay: Antibacterial activity against Streptococcus sobrinus ATCC 27351 assessed as inhibition of bacterial growth incubated for 24 hrs by microdilution assay
Streptococcus sobrinus [9] = assay: Antimicrobial activity against Streptococcus sobrinus ATCC 27351 assessed assessed as reduction in bacterial growth at 1/8 times of drug MIC in the presence of Ampicillin by microdilution method
Streptococcus pyogenes [10] = assay: Antibiofilm activity against drug-resistant Streptococcus pyogenes ATCC 19615 assessed as inhibition of biofilm formation incubated for 24 hrs by crystal violet staining based microtiter plate method
Staphylococcus aureus [11] = assay: Antibacterial activity against Staphylococcus aureus ATCC 43300 assessed as inhibition of bacterial growth incubated for 24 hrs by microdilution assay
Escherichia coli [12] = assay: Antibacterial activity against Escherichia coli EHEC 933 assessed as inhibition of bacterial growth incubated for 24 hrs by microdilution assay
Enterococcus faecalis [13] = assay: Antimicrobial activity against Enterococcus faecalis ATCC 51299 assessed assessed as reduction in bacterial growth at 1/8 times of drug MIC in the presence of Teicoplanin by microdilution method
Staphylococcus aureus [14] = assay: Antimicrobial activity against Staphylococcus aureus MED 55 assessed assessed as reduction in bacterial growth at 1/4 times of drug MIC in the presence of Oxacillin by microdilution method
[15] = system: Staphylococcus epidermidis; assay: Ratio of MBC to MIC against Staphylococcus epidermidis ATCC 12228
[16] = system: Staphylococcus epidermidis; assay: Ratio of MBC to MIC against Staphylococcus epidermidis 70 D
Staphylococcus aureus [17] = assay: Antimicrobial activity against Staphylococcus aureus MED 55 assessed assessed as reduction in bacterial growth at 1/2 times of drug MIC in the presence of Oxacillin by microdilution method
Staphylococcus aureus [18] = assay: Antimicrobial activity against […] assessed assessed as reduction in bacterial growth at 1/4 times of drug MIC in the presence of Oxacillin by microdilution method
Streptococcus sobrinus [19] = assay: Antimicrobial activity against Streptococcus sobrinus ATCC 27351 assessed assessed as reduction in bacterial growth at 1/4 times of drug MIC in the presence of Ampicillin by microdilution method
Staphylococcus aureus [20] = assay: Antimicrobial activity against Staphylococcus aureus ATCC […] assessed assessed as reduction in bacterial growth at 1/2 times of drug MIC in the presence of Oxacillin by microdilution method
Enterococcus faecalis [21] = assay: Antimicrobial activity against Enterococcus faecalis ATCC 51299 assessed assessed as reduction in bacterial growth at 1/4 times of drug MIC in the presence of Teicoplanin by microdilution method
Staphylococcus aureus [22] = assay: Antimicrobial activity against Staphylococcus aureus MED 55 assessed assessed as reduction in bacterial growth at 1/4 times of drug MIC in the presence of vancomycin by microdilution method
Staphylococcus aureus [23] = assay: Ratio of MBC to MIC against Staphylococcus aureus MED 55
Enterococcus faecalis [24] = assay: Bactericidal activity against Enterococcus faecalis ATCC 51299 assessed as bacterial killing incubated for 24 hrs by microdilution assay
Enterococcus durans [25] = assay: Antibacterial activity against Enterococcus durans BIO 0114 assessed as inhibition of bacterial growth incubated for 24 hrs by microdilution assay
Streptococcus mutans [26] = assay: Antimicrobial activity against Streptococcus mutans ATCC 25175 assessed assessed as reduction in bacterial growth at 1/4 times of drug MIC in the presence of Ampicillin by microdilution method
[27] = system: Stenotrophomonas maltophilia; assay: Antibacterial activity against Stenotrophomonas maltophilia EM 0104assessed as inhibition of bacterial growth incubated for 24 hrs by microdilution assay
Serratia marcescens = assay: Antibacterial activity against Serratia marcescens ATCC 13880 assessed as inhibition of bacterial growth incubated for 24 hrs by microdilution assay; details: subsp. marcescens ATCC 13880
[28] = system: Staphylococcus epidermidis; assay: Antimicrobial activity against Staphylococcus epidermidis 70 D assessed assessed as reduction in bacterial growth at 1/8 times of drug MIC in the presence of vancomycin by microdilution method
Streptococcus pyogenes [29] = assay: Antimicrobial activity against Streptococcus pyogenes ATCC 19615 assessed assessed as reduction in bacterial growth at 1/8 times of drug MIC in the presence of Ampicillin by microdilution method
Escherichia coli [30] = assay: Antibacterial activity against Escherichia coli EPEC E234969 assessed as inhibition of bacterial growth incubated for 24 hrs by microdilution assay
Staphylococcus aureus [31] = assay: Ratio of MBC to MIC against Staphylococcus aureus ATCC 43300
Staphylococcus aureus [32] = assay: Antimicrobial activity against Staphylococcus aureus ATCC 29213 assessed assessed as reduction in bacterial growth at 1/4 times of drug MIC in the presence of vancomycin by microdilution method
Escherichia coli [33] = assay: Antibacterial activity against Escherichia coli ETEC 2589093 assessed as inhibition of bacterial growth incubated for 24 hrs by microdilution assay
Staphylococcus aureus [34] = assay: Bactericidal activity against Staphylococcus aureus ATCC 43300 assessed as bacterial killing incubated for 24 hrs by microdilution assay
Escherichia coli [35] = assay: Antibacterial activity against Escherichia coli EIEC E20851 assessed as inhibition of bacterial growth incubated for 24 hrs by microdilution assay
Streptococcus agalactiae [36] = assay: Antibiofilm activity against drug-resistant Streptococcus agalactiae ATCC 13813 assessed as inhibition of biofilm formation incubated for 24 hrs by crystal violet staining based microtiter plate method
Streptococcus sobrinus [37] = assay: Bactericidal activity against Streptococcus sobrinus ATCC 27351 assessed as bacterial killing incubated for 24 hrs by microdilution assay
Streptococcus mutans [38] = assay: Ratio of MBC to MIC against Streptococcus mutans ATCC 25175
Streptococcus mutans [39] = assay: Antibacterial activity against Streptococcus mutans ATCC 25175 assessed as inhibition of bacterial growth incubated for 24 hrs by microdilution assay
Escherichia coli [40] = assay: Antibacterial activity against Escherichia coli EOL 931 assessed as inhibition of bacterial growth incubated for 24 hrs by microdilution assay
Enterococcus faecalis [41] = assay: Antibacterial activity against Enterococcus faecalis ATCC 6569 assessed as inhibition of bacterial growth incubated for 24 hrs by microdilution assay
Enterococcus faecalis [42] = assay: Ratio of MBC to MIC against Enterococcus faecalis ATCC 51299

CC(C)=CCC/C(C)=C/CC/C(C)=C/CO [FARNESOL]
Ratio (Enterococcus durans [1]): >4 | MIC (Klebsiella pneumoniae [2]): > 1020 µg/mL | MIC (Enterococcus faecalis [3]): > 1020 µg/mL | MIC (Staphylococcus aureus [4]): 2 µg/mL (≈ 8.99 µM) | MIC [5]: 0.25 µg/mL | MBC (Streptococcus agalactiae [6]): 32 µg/mL (≈ 144 µM) | MIC (Klebsiella pneumoniae [7]): > 1020 µg/mL | MIC (Streptococcus sobrinus [8]): 8 µg/mL (≈ 36 µM) | MIC (Streptococcus sobrinus [9]): 0.125 µg/mL | MIC (Streptococcus pyogenes [10]): 16 µg/mL (≈ 72 µM) | MIC (Staphylococcus aureus [11]): 128 µg/mL (≈ 576 µM) | MIC (Escherichia coli [12]): > 1020 µg/mL | MIC (Enterococcus faecalis [13]): 1 µg/mL | MIC (Staphylococcus aureus [14]): 128 µg/mL | Ratio [15]: >4 | Ratio [16]: 2 | MIC (Staphylococcus aureus [17]): 128 µg/mL | MIC (Staphylococcus aureus [18]): 8 µg/mL | MIC (Streptococcus sobrinus [19]): 0.125 µg/mL | MIC (Staphylococcus aureus [20]): 1 µg/mL | MIC (Enterococcus faecalis [21]): 1 µg/mL | MIC (Staphylococcus aureus [22]): 2 µg/mL | Ratio (Staphylococcus aureus [23]): 2 | MBC (Enterococcus faecalis [24]): > 512 µg/mL | MIC (Enterococcus durans [25]): 64 µg/mL (≈ 288 µM) | MIC (Streptococcus mutans [26]): 0.5 µg/mL | MIC [27]: > 1020 µg/mL | MIC (Serratia marcescens): > 1020 µg/mL | MIC [28]: 2 µg/mL | MIC (Streptococcus pyogenes [29]): 0.063 µg/mL | MIC (Escherichia coli [30]): > 1020 µg/mL | Ratio (Staphylococcus aureus [31]): >4 | MIC (Staphylococcus aureus [32]): 2 µg/mL | MIC (Escherichia coli [33]): > 1020 µg/mL | MBC (Staphylococcus aureus [34]): 512 µg/mL (≈ 2300 µM) | MIC (Escherichia coli [35]): > 1020 µg/mL | MIC (Streptococcus agalactiae [36]): 4 µg/mL (≈ 18 µM) | MBC (Streptococcus sobrinus [37]): 16 µg/mL (≈ 72 µM) | Ratio (Streptococcus mutans [38]): 4 | MIC (Streptococcus mutans [39]): 128 µg/mL (≈ 576 µM) | MIC (Escherichia coli [40]): > 1020 µg/mL | MIC (Enterococcus faecalis [41]): > 1020 µg/mL | Ratio (Enterococcus faecalis [42]): >4
